# Several values for one entry are separate records, joined by “and”; a condition that tells them apart may be missing. Equal entries are not always repeated. Where two headings read alike, the source gives them in different places.
# Legend:
# [1] = molecular target: BChE (EC 3.1.1.8, equine serum) (Equus caballus, UniProt P81908); assay: In vitro ChE activity assay (modified Ellman), BChE; format: biochemical; settings: for inhibition at 50 µM / inhibition at 500 µM: read-out: BChE % Inhibition
# BChE (EC 3.1.1.8, equine serum), sequence (P81908 whole entry): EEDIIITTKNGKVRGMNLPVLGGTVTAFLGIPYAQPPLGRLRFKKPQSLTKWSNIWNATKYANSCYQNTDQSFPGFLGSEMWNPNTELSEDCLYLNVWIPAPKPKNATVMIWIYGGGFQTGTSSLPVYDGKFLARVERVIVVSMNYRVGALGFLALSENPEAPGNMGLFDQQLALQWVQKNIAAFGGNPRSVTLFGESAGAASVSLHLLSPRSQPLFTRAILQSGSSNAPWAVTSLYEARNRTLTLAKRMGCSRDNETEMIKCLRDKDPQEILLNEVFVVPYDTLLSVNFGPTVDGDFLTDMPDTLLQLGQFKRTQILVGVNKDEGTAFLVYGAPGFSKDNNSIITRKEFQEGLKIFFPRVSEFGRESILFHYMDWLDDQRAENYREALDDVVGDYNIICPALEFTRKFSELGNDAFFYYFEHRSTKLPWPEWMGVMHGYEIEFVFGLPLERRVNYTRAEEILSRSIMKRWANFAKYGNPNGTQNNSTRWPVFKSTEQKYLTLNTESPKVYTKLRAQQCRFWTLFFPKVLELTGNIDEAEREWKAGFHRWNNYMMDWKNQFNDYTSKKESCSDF
# [2] = test system: LPS-stimulated TNFα production in PBMCs; assay: LPS-stimulated TNFα production in PBMCs (ELISA); format: cell-based; settings: Homo sapiens, PBMC, read-out: IC50, inhibition of LPS-stimulated TNFα production
# Protocol: The effect of compounds on lipopolysaccharide (LPS)-stimulated tumor necrosis factor alpha (TNFα) production was evaluated as described previously. In short, peripheral blood mononuclear cells (PBMCs) were isolated from buffy coats obtained from healthy adult volunteers and resuspended in RPMI1640 medium (Capricorn Scientific, Ebsdorfergrund, Germany) supplemented with 10% heat-inactivated FBS (Biowest, Bradenton, FL, USA), 1% GlutaMAX (Gibco, Waltham, MA, USA), and 1% antibiotic–antimycotic (Gibco). Then, 2 × 10^5 PBMCs were seeded per well of a 96-well plate. […]
# TNFα concentration in supernatants was measured by ELISA using antibodies and recombinant human TNFα protein (standard) from R&D Systems. […] Finally, after the plates were incubated with streptavidin-HRP (Invitrogen, Waltham, MA, USA), chemiluminescence ELISA Substrate (Roche, Basel, Switzerland) was added to the wells, and luminescence was measured using an EnVision 2105 multilabel reader (Revvity, Waltham, MA, USA). Measured luminescence was used to calculate concentrations of TNFα in the supernatants by interpolation from the standard curve. Percentages of inhibition were calculated from obtained cytokine concentrations, and IC50 values were determined using GraphPad Prism v9 software with a nonlinear regression curve fit (four parameters with variable slope).
# [3] = at maximal concentration tested, 50 μM
# [4] = at maximal concentration tested
Compound,IC50 ([1]; BChE IC50),IC50 ([1]; read-out: BChE IC50) [nM],further results
"CCN(C)C(=O)Oc1cccc(/C=C/c2cccs2)c1 [Compound 12, (E)-3-(2-(thiophen-2-yl)vinyl)phenyl ethyl(methyl)carbamate]",1500 nM,1070,"inhibition at 50 µM [1, 3]: 83.2 ± 0.84%"
"CNC(=O)Oc1ccc(F)cc1/C=C/c1ccc(C)s1 [Compound 6, (E)-4-fluoro-2-(2-(5-methylthiophen-2-yl)vinyl)phenyl methylcarbamate]",14100 nM,,inhibition at 50 µM [1]: 74 ± 3.2%
"O=C(Oc1ccc(F)cc1/C=C/c1cccs1)N1CCOCC1 [Compound 17, (E)-4-fluoro-2-(2-(thiophen-2-yl)vinyl)phenyl morpholine-4-carboxylate]",,645,"inhibition at 25 µM [1, 4]: 82.3 ± 2.44%"
"CNC(=O)Oc1ccccc1/C=C/c1cccs1 [Compound 1, (E)-2-(2-(thiophen-2-yl)vinyl)phenyl methylcarbamate]",,500,"inhibition at 10 µM [1, 4]: 84.4 ± 1.18%"
"CNC(=O)Oc1ccc(OC)cc1/C=C/c1cccs1 [Compound 3, (E)-4-methoxy-2-(2-(thiophen-2-yl)vinyl)phenyl methylcarbamate]",,150000,"inhibition at 500 µM ([1]; at maximal concentration tested, 500 μM): 82.2 ± 2%"
"CCN(C)C(=O)Oc1ccc(C)cc1/C=C/c1cccs1 [Compound 11, (E)-4-methyl-2-(2-(thiophen-2-yl)vinyl)phenyl ethyl(methyl)carbamate]",,1540,"inhibition at 10 µM [1, 4]: 82.8 ± 1.57%"
"CNC(=O)Oc1ccc(C)cc1/C=C/c1cccs1 [Compound 4, (E)-4-methyl-2-(2-(thiophen-2-yl)vinyl)phenyl methylcarbamate]",1100 nM and 913 nM,,"inhibition at 10 µM [1, 4]: 85.4 ± 2.29%"
"CCN(C)C(=O)Oc1cc(OC)ccc1/C=C/c1cccs1 [Compound 13, (E)-5-methoxy-2-(2-(thiophen-2-yl)vinyl)phenyl ethyl(methyl)carbamate]",,1880,"inhibition at 25 µM [1, 4]: 84.4 ± 2.29%"
"CCN(C)C(=O)Oc1ccc(F)cc1/C=C/c1cccs1 [Compound 10, (E)-4-fluoro-2-(2-(thiophen-2-yl)vinyl)phenyl ethyl(methyl)carbamate]",,3080,"inhibition at 27 µM ([1]; at maximal concentration tested, 27 μM): 83.5 ± 1.49%"
"O=C(Oc1cccc(/C=C/c2cccs2)c1)N1CCOCC1 [Compound 19, (E)-3-(2-(thiophen-2-yl)vinyl)phenyl morpholine-4-carboxylate]",,2040,"inhibition at 50 µM [1, 3]: 79.7 ± 2.51%"
"CNC(=O)Oc1ccc(Cl)cc1C=Cc1ncc(C)s1 [Compound 8, (E) and (Z)-4-chloro-2-(2-(5-methylthiazol-2-yl)vinyl)phenyl methylcarbamate]",59100 nM,,inhibition at 500 µM [1]: 87.21 ± 0.47%
"CCN(C)C(=O)Oc1ccccc1/C=C/c1ccc(C)s1 [Compound 14, (E)-2-(2-(5-methylthiophen-2-yl)vinyl)phenyl ethyl(methyl)carbamate]",85100 nM,90000,"inhibition at 250 µM ([1]; at maximal concentration tested, 250 μM): 70 ± 0.8%"
"CNC(=O)Oc1ccc(Cl)cc1/C=C/c1ccc(C)s1 [Compound 7, (E)-4-chloro-2-(2-(5-methylthiophen-2-yl)vinyl)phenyl methylcarbamate]",,30400,"inhibition at 100 µM [1, 4]: 69.8 ± 1.15%"
"CNC(=O)Oc1ccccc1/C=C/c1ccc(C)s1 [Compound 5, (E)-2-(2-(5-methylthiophen-2-yl)vinyl)phenyl methylcarbamate]",913 nM,1100,"inhibition at 5 µM ([1]; at maximal concentration tested, 5 μM): 74.8 ± 2.36%"
"CNC(=O)Oc1ccc(F)cc1/C=C/c1cccs1 [Compound 2, (E)-4-fluoro-2-(2-(thiophen-2-yl)vinyl)phenyl methylcarbamate]",,3740,"inhibition at 100 µM [1, 4]: 84.7 ± 3.2%"
"C[C@@H]1C[C@H]2[C@@H]3CCC4=CC(=O)C=C[C@]4(C)[C@@]3(F)[C@@H](O)C[C@]2(C)[C@@]1(O)C(=O)CO [Dexamethasone, reference compound]",,,"IC50 ([2]; PBMCs, reference compound): 0.0035 µM"
"Cc1ccc(OC(=O)N2CCOCC2)c(/C=C/c2cccs2)c1 [Compound 18, (E)-4-methyl-2-(2-(thiophen-2-yl)vinyl)phenyl morpholine-4-carboxylate]",,430,"inhibition at 25 µM [1, 4]: 87.5 ± 1.31%"
"O=C(Oc1ccccc1/C=C/c1cccs1)N1CCOCC1 [Compound 16, (E)-2-(2-(thiophen-2-yl)vinyl)phenyl morpholine-4-carboxylate]",,26.5,"inhibition at 1 µM ([1]; at maximal concentration tested, 1 μM): 84.25 ± 0.82%; IC50 ([2]; average, PBMCs from two donors): 31.6 µM"
"CCN(C)C(=O)Oc1ccccc1/C=C/c1cccs1 [Compound 9, (E)-2-(2-(thiophen-2-yl)vinyl)phenyl ethyl(methyl)carbamate]",,583,"inhibition at 10 µM [1, 4]: 83.9 ± 1.77%"
